The source of these data is article PMC8306634, “Antimicrobial and Antioxidative Activity of Newly Synthesized Peptides Absorbed into Bacterial Cellulose Carrier against Acne vulgaris” (International Journal of Molecular Sciences, 2021).

One assay concerns S. aureus. The following applies: 24 h.
The test system of the next assay is S. aureus biofilm. Kind of assay: Activity against Staphylococcus aureus biofilm (MBEC, TTC). The assay is classed as cell-based. Particulars: for reduction of staphylococcal biofilm: 24 h, TTC read-out 490 nm, ANOVA with Tukey's test p < 0.05. On the procedure:
A total of 100µL of S. aureus suspension (10^5 cfu/mL) in TSB) medium was introduced to wells of 96-well plate and incubated at 37 °C/24 h without shaking. Next, whole medium was removed, leaving biofilm-forming organisms attached to the bottom of a 96-well plate. Subsequently, geometric dilutions of peptides in TSB (62.5–250 mg/L) were applied to the wells and left for another 24 h at 37 °C. The culture with no added peptide served as a positive control for microorganism growth, while the well containing the sterile TSB only served as a sterility control for the experiment. After incubation, 5 µL of triphenyl tetrazolium chloride (TTC, Sigma Aldrich, Taufkirchern, Germany) was added to each well and incubated for 5 h at 37 °C. A change of colorless TTC to red formazan confirmed the presence of metabolically active microorganisms. Next, the formazan was dissolved in methanol and its concentration was measured using a Thermo Scientific Multiskan Go spectrometer with a wavelength of 490 nm. In parallel, biofilms in plate wells were agitated using an automated pipette, removed from 96-well plates, and spotted on a stable (M-H) agar plate (Biomaxima, Lublin, Poland) where they were incubated for 48 h. The presence of living colonies on agar indicated the lack of MBEC, while the absence of colonies in the place where spotting was performed confirmed that the particular concentration of peptide can be considered the MBEC.

For another assay, the system named is C. acnes. The following applies: 24 h.
In assay [1] the test system is S. aureus 6538. Particulars: for antimicrobial activity against planktonic S. aureus (in words): Figure 4, highest tested 250 mg/L; for concentration at which reduction of staphylococcal cell number was observed: planktonic S. aureus, Figure 4; for MBC: 6538, 24 h.
Procedure: For experimental purposes, the American type culture collection’s strains of S. aureus 6538 and C. acnes 6919 were applied.
The following standard procedure of MBC evaluation according to CLSI (Methods for Determining Bactericidal Activity of Antimicrobial Agents; Approved Guideline, document M26A, Global Laboratory Standards for a Healthier World, https://clsi.org, accessed on 15 December 2020) was performed. The 96-well plates with bacteria and peptide concentrations were performed and incubated as it was described in Section 2 of Material and Methods. Then the M-H agar plates with spots containing staphylococcal culture were incubated at 37 °C for 24 h. Lack of colony presence in the spot after incubation was considered as lack of microorganism growth, while presence of microbial colony in the spot was considered presence of microorganism growth. All experiments were performed in triplicate.
Assay [2] is described as follows: DPPH radical scavenging activity. The following applies: absorbance at 522 nm, 25 °C, triplicate. The protocol:
The DPPH spectrometric method described by Brand, Williams et al. was applied due to its efficiency on lipophilic and hydrophilic samples [60]. The evaluation of free radical scavenging capacity (FRSC) was based on DPPH (Merck, Darmstadt, Germany) absorbance intensity resulting from its reaction with surfactants. A PG Instruments UV–Vis T60 spectrophotometer (Alab, Warszawa, Poland), interfaced with a computer with a quartz cuvette and of path length 1.0 cm at 25 °C, using a total volume of 3.0 mL, was applied in the range 190–900 nm. As a sample (As) 1.0 mL of P1–P6 aqueous solution (2 mg/mL) and 2.0 mL of ethanolic DPPH solution (5.9·10–2 mg/mL) were mixed and evaluated. As a blank (Ab), 1.0 mL of water, mixed with 2.0 mL of ethanol, was used. Absorbance decrease at 522 nm was measured in 2 min intervals for 6 h. FRSC was calculated as a percentage with the following equation: FRSC (%) = [(Ab – As)/Ab] × 100%. All measurements were performed in triplicate.
Background: The DPPH test is a chemical assay of radical scavenging.

In assay [3] the test system is S. aureus 6538. Kind of assay: Minimal inhibitory concentration against planktonic Staphylococcus aureus. The assay is classed as cell-based. The following applies: M-H broth, 24 h/37 °C, tested 0.48-250 mg/L, turbidity 580 nm, triplicate. The protocol:
A loop of staphylococcal culture grown on Columbia agar plate (BioMaxima, Poland) was transferred to liquid tryptone soya broth (TSB, BTL) and incubated at 37 °C for 24 h. Next, culture’s optical density of 1 McFarland (3 × 10^8 cfu/mL) was established using a densitometer (Biomerieux, Poland). Subsequently, the suspension was diluted in the Miller-Hinton Broth (M-H, BioMaxima, Poland) to reach the density of 1 × 10^5 cells/mL. Afterwards, serial dilutions of each peptide was performed in M-H Broth in 96-well plate (BioStar, Germany). Next 100 μL of previously-prepared microbial suspension was added to each well. The highest concentration of each peptide tested in this experimental setting was thus 250 mg/L and it dropped twice in each subsequent well of 96-well plate up to 0.48 mg/L. Plates were incubated for 24 h/37 °C in shaker (Lab Companion, JeioTech, Daejeon, Korea). After incubation, the turbidity of bacterial culture was measured using Thermo Scientific Multiskan Go spectrometer (Thermo-Fischer Scientific, Vantaa, Finland) with wavelength of 580 nm. The microbial culture where no peptide was added served as growth control. The sterility control setting was M-H broth with no microorganism added. The tetrazolium salt (TTC) test served as additional analysis of microbial cell number reduction. All experiments were performed in triplicate.

The MBC is the smallest concentration meeting the test's criterion for killing. A lower MBC goes with more potent killing.

In brackets after ≈: the same amount, converted by molar mass. Where a SMILES comes first, the peptide text is derived from it. Side-chain parts run from the residue outwards. The star is where a group is joined. Lauroyl = CCCCCCCCCCCC(=O)*

With `NCCCC[C@H](NC(=O)[C@H](Cc1c[nH]c2ccccc12)NC(=O)[C@H](CCCCN)NC(=O)[C@H](Cc1c[nH]c2ccccc12)NC(=O)[C@H](CCCCNC(=O)[C@H](CCCCN)NC(=O)[C@H](Cc1c[nH]c2ccccc12)NC(=O)[C@H](CCCCN)NC(=O)[C@@H](N)Cc1c[nH]c2ccccc12)NC(=O)[C@H](CCCCN)NC(=O)[C@H](Cc1c[nH]c2ccccc12)NC(=O)[C@H](CCCCN)NC(=O)[C@@H](N)Cc1c[nH]c2ccccc12)C(N)=O` [Peptide P2, (WKWK)2-KWKWK-NH2] (H-WKWKK([Lys-Trp-Lys-Trp])WKWK-NH2), the “Inhibition Zone” value in the assay with S. aureus came to 0 mm; in the assay on C. acnes, 1.6 ± 0.9 mm. Also, the MBEC entry with S. aureus biofilm (24 h S. aureus biofilm in TSB, peptides 62.5–250 mg/L for 24 h at 37 °C, spotting on M-H agar) is on record as “not achieved”. Moreover, the “reduction of staphylococcal biofilm” value in the assay on S. aureus biofilm (exposure to 125 mg/L) and with S. aureus biofilm (exposure to 250 mg/L) was “significant reduction” each time.
Turning to `CCCCCCCCCCCC(=O)NCCCC[C@H](NC(=O)CCCCCCCCCCC)C(=O)N[C@@H](CCCCN)C(=O)N[C@@H](CCCCN)C(=O)N[C@@H](CCCCN)C(N)=O` [Peptide P4, (C12)2-KKKK-NH2] (Lauroyl-K(Lauroyl)KKK-NH2), the “Inhibition Zone” value in the assay on S. aureus and in the assay on C. acnes was 0 mm throughout. The “reduction of staphylococcal biofilm” value with S. aureus biofilm (exposure to 125 mg/L) and with S. aureus biofilm (exposure to 250 mg/L) was “significant reduction” each time. Further, the “antimicrobial activity against planktonic S. aureus (in words)” value (from here on “antimicrobial activity”) with S. aureus 6538 [1] is reported as “highest anti-staphylococcal activity”. Further, the “concentration at which reduction of staphylococcal cell number was observed” value (shortened to “concentration at which reduction”) with S. aureus 6538 [1] is listed as 62.5 mg/L. In assay [2] (peptide 2 mg/mL, six hours), the “DPPH radicals inhibited over six hours” value is reported as < 20%.
In the case of (WK)2-KWK-NH2 [Peptide P1], in the assay on S. aureus 6538 [1], the “antimicrobial activity” value is “lack of antimicrobial activity”. For the same compound, the MIC entry with S. aureus 6538 [3] was “not observed”.
As for `NCCCC[C@H](NC(=O)[C@@H](N)CCCCN)C(=O)NCCCC[C@H](NC(=O)[C@H](CCCCN)NC(=O)[C@@H](N)CCCCN)C(=O)N[C@@H](Cc1c[nH]c2ccccc12)C(=O)N[C@@H](Cc1c[nH]c2ccccc12)C(=O)N[C@@H](Cc1c[nH]c2ccccc12)C(N)=O` [Peptide P6, (KK)2-KWWW-NH2] (H-KKK([Lys-Lys])WWW-NH2; N-terminus assumed), the “Inhibition Zone” value in the assay on S. aureus and in the assay on C. acnes was 0 mm in each case. Moreover, the “reduction of staphylococcal biofilm” value in the assay on S. aureus biofilm (exposure to 125 mg/L) and in the assay on S. aureus biofilm (exposure to 250 mg/L) was “significant reduction” in each case. The compound further came in with an MBC with S. aureus 6538 [1] of 250 µg/mL (≈ 205 µM). Further, in the assay with S. aureus 6538 [1], the “concentration at which reduction” value came out at 125 mg/L.
On to `NCCCC[C@H](NC(=O)[C@H](Cc1c[nH]c2ccccc12)NC(=O)[C@@H](N)CCCCN)C(=O)NCCCC[C@H](NC(=O)[C@H](CCCCN)NC(=O)[C@H](Cc1c[nH]c2ccccc12)NC(=O)[C@@H](N)CCCCN)C(=O)N[C@@H](Cc1c[nH]c2ccccc12)C(=O)N[C@@H](Cc1c[nH]c2ccccc12)C(=O)N[C@@H](Cc1c[nH]c2ccccc12)C(N)=O` [Peptide P5, (KWK)2-KWWW-NH2] (H-KWKK([Lys-Trp-Lys])WWW-NH2; N-terminus assumed), for which the “Inhibition Zone” value with S. aureus is given as 1 mm; in the assay with C. acnes, 2 mm. The “reduction of staphylococcal biofilm” value with S. aureus biofilm (exposure to 250 mg/L) is listed as “significant reduction”. This compound also showed an MBC with S. aureus 6538 [1] of 250 µg/mL (≈ 157 µM). In addition, the “concentration at which reduction” value with S. aureus 6538 [1] is 125 mg/L. Further, the “time required for the extinction of fifty percent of the DPPH” value in assay [2] (peptide 2 mg/mL aqueous (1.0 mL) + 2.0 mL ethanolic DPPH 5.9·10–2 mg/mL) was determined as 124 min.
Take (WR)2-KWR-NH2 [Peptide P3]: in the assay with S. aureus 6538 [1], the “antimicrobial activity” value is given as “recordable antimicrobial activity, however only in the highest concentrations of 250 mg/L”.
